The source of these data is ChEMBL document CHEMBL4706629, “New derivatives of 4'-phenyl-2,2':6',2″-terpyridine as promising anticancer agents” (Eur J Med Chem, 2021).

Each structure is given as a SMILES string. Active and inactive are the calls of the source. The rule behind the calls is not given here. A value given as a limit tells only on which side of the number the result lay.

One data set deals with U-251. The data set can be described thus: Cytotoxicity against human U-251 cells assessed as reduction in cell viability measured after 72 hrs by MTS assay. It is filed as functional, cell-based. The conditions noted are these: U-251, 72 h. Background: Formazan colour is commonly taken as a measure of viable cells.
Data set [1] relates to MCF7. The data set can be described thus: Cytotoxicity against human MCF7 cells assessed as reduction in cell viability measured after 72 hrs by MTS assay. It is filed as functional, cell-based. The conditions noted are these: MCF7, 72 h.
The subject of data set [2] is PANC-1. Put plainly: Cytotoxicity against human PANC-1 cells assessed as reduction in cell viability measured after 72 hrs by MTS assay. The note with it: PANC-1, 72 h. It is filed as functional, cell-based.
A further data set concerns HCT-116. The data set can be described thus: Cytotoxicity against human HCT-116 cells assessed as reduction in cell viability measured after 72 hrs by MTS assay. The conditions noted are these: HCT-116, 72 h. It counts as functional, cell-based.
A further data set relates to K562. The data set can be described thus: Cytotoxicity against human K562 cells assessed as reduction in cell viability measured after 72 hrs by MTS assay. It is filed as functional, cell-based. The note with it: K562, 72 h.
A short description of data set [3]: Dark toxicity in human HeLa cells assessed as reduction in cell viability measured after 4 hrs by resazurin dye based fluorescence assay. Background: Alamar Blue is a resazurin reagent that responds to reducing activity.
The next data set deals with NHDF. The data set can be described thus: Cytotoxicity against NHDF cells assessed as reduction in cell viability measured after 72 hrs by MTS assay. It counts as cell-based. The conditions noted are these: Homo sapiens.
The nature of data set [4]: Drug localization in mitochondria of human MCF7 cells at 25 uM measured after 2 hrs by mitotracker orange dye based microscopic analysis. The note with it: mcf7, 2 h. It is filed as ADME.
Data set [5] is described as follows: Drug localization in lysosomes of human MCF7 cells at 25 uM measured after 2 hrs by lysotracker red DND-99 dye based microscopic analysis. It counts as ADME, subcellular, Lysosome. The note with it: mcf7, 2 h.
For data set [6], the system named is PANC-1. The data set can be described thus: Induction of autophagy in human PANC-1 cells assessed as increase in LC3 expression at 25 uM measured after 24 hrs by muse cell analyzer based fluorescence assay relative to control. It counts as functional.
Data set [7] relates to MCF7. The data set can be described thus: Up regulation of p53 expression in human MCF7 cells at 5 uM measured after 24 hrs by Western blot analysis. It counts as functional, cell-based. For orientation: Immunoblotting shows a protein as a band on a membrane.
The test system of data set [8] is PANC-1. The data set can be described thus: Up regulation of p53 expression in human PANC-1 cells at 5 uM measured after 24 hrs by Western blot analysis relative to control. It counts as functional, cell-based.

As for `CCCCCCCCCCn1cc(-c2ccc(-c3cc(-c4nccs4)nc(-c4nccs4)c3)cc2)nn1`, the IC50 with U-251, in the data set on MCF7 [1], in the data set with PANC-1 [2], in the data set with HCT-116 and in the data set on K562 was more than 25000 nM each time.

Regarding `CCCCCCCCCCn1cc(-c2ccc(-c3cc(-c4cnccn4)nc(-c4cnccn4)c3)cc2)nn1`, the IC50 in the data set on U-251, with MCF7 [1], with PANC-1 [2], in the data set with HCT-116 and in the data set with K562 was more than 25000 nM in each case.

For `COc1cc(-c2cccnc2)nc(-c2ccccn2)c1`, in data set [3], the IC50 (in general, the concentration at which inhibition is half-maximal) at 4 h amounted to 40900 nM.

`c1ccc(-c2cc(-c3ccc(-n4cc(-c5ccc(-c6cccs6)s5)nn4)cc3)cc(-c3ccccn3)n2)nc1`: the half-inhibitory concentration (IC50) is 3590 nM in the data set on U-251; 1790 nM in the data set with MCF7 [1]; 2220 nM in the data set with PANC-1 [2]; 822 nM in the data set with HCT-116; 1950 nM in the data set on K562; more than 25000 nM in the data set on NHDF.

Consider `CC1(C)c2ccccc2-c2ccc(-c3cn(-c4ccc(-c5cc(-c6ccccn6)nc(-c6ccccn6)c5)cc4)nn3)cc21`, for which the Drug uptake result in data set [4] and in data set [5] was “Active” in each case. Moreover, the IC50 was 1880 nM in the data set on U-251; 1070 nM in the data set with MCF7 [1]; 1870 nM in the data set on PANC-1 [2]; 1290 nM in the data set on HCT-116; 625 nM with K562; more than 25000 nM with NHDF.

For `CN(C)c1cc(-c2cccnc2)nc(-c2ccccn2)c1`, in data set [3], the IC50 at 4 h came out at 19600 nM.

As for `N#Cc1ccc(-c2cn(-c3ccc(-c4cc(-c5ccccn5)nc(-c5ccccn5)c4)cc3)nn2)cc1`, the IC50 stood at 1830 nM with U-251; 372 nM with MCF7 [1]; 920 nM in the data set on PANC-1 [2]; 1310 nM in the data set on HCT-116; 1570 nM in the data set on K562; 2030 nM in the data set on NHDF.

`c1ccc(-c2cc(-c3ccc(-n4cc(-c5ccc6sc7ccccc7c6c5)nn4)cc3)cc(-c3ccccn3)n2)nc1`: the IC50 is 2390 nM with U-251; 1720 nM in the data set on MCF7 [1]; 784 nM in the data set with PANC-1 [2]; 918 nM in the data set with HCT-116; 7380 nM in the data set on K562; more than 25000 nM in the data set on NHDF.

On to `CCCCCOc1ccc(-c2cn(-c3ccc(-c4cc(-c5ccccn5)nc(-c5ccccn5)c4)cc3)nn2)cc1`, for which the IC50 is 609 nM in the data set with U-251; 871 nM in the data set with MCF7 [1]; 374 nM in the data set on PANC-1 [2]; 491 nM in the data set with HCT-116; 1790 nM in the data set with K562; more than 25000 nM in the data set with NHDF.

With `c1ccc(-c2cn(-c3ccc(-c4cc(-c5ccccn5)nc(-c5ccccn5)c4)cc3)nn2)cc1`, the IC50 in the data set with U-251 is 955 nM; with MCF7 [1], 477 nM; with PANC-1 [2], 287 nM; with HCT-116, 249 nM; in the data set on K562, 741 nM; in the data set with NHDF, more than 25000 nM.

Turning to `c1ccc(-c2cccc(-c3cccnc3)n2)nc1`, the IC50 at 4 h in data set [3] amounted to 35100 nM.

Regarding `Cc1ccc(NC(=O)c2ccc(CN3CCN(C)CC3)cc2)cc1Nc1nccc(-c2cccnc2)n1` [IMATINIB], the “fold change (FC)” value in the data set on PANC-1 [6] is given as 2.

`O=C(O)c1cc(-c2cccnc2)nc(-c2ccccn2)c1`: the IC50 at 4 h in data set [3] was 50500 nM.

As for `Oc1cn(-c2ccc(-c3cc(-c4ccccn4)nc(-c4ccccn4)c3)cc2)nn1`, the IC50 came to 1400 nM in the data set on U-251; 592 nM in the data set with MCF7 [1]; 689 nM in the data set with PANC-1 [2]; 782 nM with HCT-116; 1310 nM in the data set with K562; 11800 nM in the data set with NHDF.

On to `CCCCCCCCn1c2ccccc2c2cc(-c3cn(-c4ccc(-c5cc(-c6ccccn6)nc(-c6ccccn6)c5)cc4)nn3)ccc21`, for which the IC50 is 10100 nM in the data set with U-251; 9960 nM with MCF7 [1]; 3590 nM in the data set on PANC-1 [2]; 6260 nM in the data set on HCT-116; 5500 nM in the data set with K562; more than 25000 nM in the data set with NHDF.

With `COc1cccc2c1C(=O)c1c(O)c3c(c(O)c1C2=O)C[C@@](O)(C(=O)CO)C[C@@H]3O[C@H]1C[C@H](N)[C@H](O)[C@H](C)O1` [DOXORUBICIN], the IC50 with U-251 was determined as 52 nM; in the data set on MCF7 [1] it was 405 nM; in the data set with K562 it was 19 nM; in the data set with NHDF, 137 nM. Further, the outcome in the data set with MCF7 [7] and in the data set on PANC-1 [8] was Active.

As for `CCCCCCCCCCCCc1cn(-c2ccc(-c3cc(-c4ccccn4)nc(-c4ccccn4)c3)cc2)nn1`, the half-maximal inhibitory concentration (IC50) in the data set on U-251 is 20400 nM; with MCF7 [1], 11200 nM; with PANC-1 [2] it was more than 25000 nM; in the data set with HCT-116, 13500 nM; in the data set with K562, 19800 nM; in the data set on NHDF, 9070 nM.

As for `Clc1cc(-c2cccnc2)nc(-c2ccccn2)c1`, the IC50 at 4 h in data set [3] is 26500 nM.
